Measured values taken from patent publication US10676468B2, “N-(3-heteroarylaryl)-4-arylarylcarboxamides and analogs as hedgehog pathway inhibitors and use thereof” (IMPACT Therapeutics, Inc., priority 2012, dated 2020).
Where a name gives a salt, the structure may show the parent alone.

Test system: Hedgehog Signaling Pathway
Assay: Gli-Luc reporter gene cell assay in C3H10T1/2/Gli-Luc cells stimulated with Shh
Assay type: cell-based, mouse
Settings: 30 nM Shh, 24 hours, luciferase activity (RLU), read-out: IC50 values of compounds that inhibit Hh pathway
Source text: The Application of Reporter Gene Cell Assay for the Determination of the Inhibitory Activity of N-(3-(1H-benzo[d]imidazol-2-yl)-4-chlorophenyl)-2-methyl-4-((2S,6R)-2,6-dimethylmorpholino) benzamide and Analogs on Hedgehog Signaling Pathway
The binding of Sonic hedgehog (Shh) to its receptor Patched 1 initiates numerous intracellular signal transmission, and leads to the nuclear translocation of Gli and the elevated transcription of Gli target genes. When C3H10T1/2 cells are stably transfected with the Gli-Luc plasmids containing the luciferase gene under the control of Gli response element and stimulated with Shh, the expression of luciferase is elevated. Luciferase activity is indicative of the hedgehog signaling pathway activity. Therefore, the inhibitory activity of compounds on hedgehog signaling pathway can be measured using the luciferase activity when the transfected cells are stimulated with Shh.
The day before experiment, C3H10T1/2/Gli-Luc cells in log phase of growth were seeded into 96 well plate at a density of 20000 cells per well. The cells were maintained in DMEM (Hyclone) supplemented with 10% FBS (Hyclone) and incubated at 37° C. with 5% CO2 overnight. The compounds to be examined were diluted into 7 different concentrations by series of dilutions (⅓ and 1/10), and the eighth point of concentration is the DMSO control. Those solutions were diluted 100-fold in the fresh growth medium. The cells were taken out of the incubator and the medium of cultured cells were removed. Then, each well was added in an orderly manner with 80 μL of fresh growth medium, 20 μL of medium pre-dilution of positive compound and compounds to be tested, as well as 100 μL of growth medium containing 30 nM of Shh. The cells are returned to the incubator, and incubated for 24 hours.
Measurement of luciferase activity: After taking the 96 well plate out of the incubator, the supernatants were discarded and the cells were washed twice with PBS. Thereafter, each well was dispensed with 20 μL of lysis buffer (Promega E1531), and the plate was shaken for 30 min at room temperature. Following transferring 5 μL of cell lysate into 384 well plate (Greiner 781074), adding 25 μL of luciferase reaction buffer (Promega E1501) into each well and mixing the plate, the relative light unit (RLU) was immediately captured by VarioSkan Flash.
The data were analyzed with Prism 5 software (GraphPad). The relative light unit (RLU) was plotted against the log concentration of testing compound, and the obtained plot was fitted with non-linear curve fitting equation to calculate IC50 values. The curve fitting equation is Y (RLU)=Bottom+(Top−Bottom)/(1+10^((X−Log IC50))). X is the logarithm of concentration. Y is the measure of relative light unit (RLU).
The calculated IC50 value is a measurement of the inhibitory activity of compound to Hh pathway.

IC50 | SMILES
0.24 nM | C[C@@H]1CN(c2ccc(C(=O)Nc3ccc(Cl)c(-c4ncc(-c5ccsc5)[nH]4)c3)c(C(F)(F)F)c2)C[C@H](C)N1C [Example 164, N-(3-(5-(thiophen-3-yl)-1H-imidazol-2-yl)-4-chlorophenyl)-2-(trifluoromethyl)-4-((3S,5R)-3,4,5-trimethylpiperazin-1-yl) benzamide Dihydrochloride]
0.28 nM | C[C@@H]1CN(c2ccc(C(=O)Nc3ccc(Cl)c(-c4nc5cscc5[nH]4)c3)c(C(F)(F)F)c2)C[C@H](C)N1C [Example 200, N-(3-(1H-thieno[3,4-d]imidazol-2-yl)-4-chlorophenyl)-2-(trifluoromethyl)-4-((3S,5R)-3,4,5-trimethylpiperazin-1-yl) Benzamide]

Same assay, conditions: Mus musculus, C3H 10T1/2, 24 h, 30 nM Shh, luciferase activity (RLU), read-out: IC50 values of compounds that inhibit Hh pathway

SMILES | IC50
CCN1[C@H](C)CN(c2ccc(C(=O)Nc3ccc(Cl)c(-c4ncc(-c5ccco5)[nH]4)c3)c(Cl)c2)C[C@@H]1C [Example 150, N-(3-(5-(furan-2-yl)-1H-imidazol-2-yl)-4-chlorophenyl)-2-chloro-4-((3S,5R)-4-ethyl-3,5-dimethylpiperazin-1-yl)benzamide] | 0.5 nM
Cc1ccc(-c2cnc(-c3cc(NC(=O)c4ccc(N5C[C@@H](C)N(C)[C@@H](C)C5)cc4Cl)ccc3Cl)[nH]2)o1 [Example 151, N-(3-(5-(5-methylfuran-2-yl)-1H-imidazol-2-yl)-4-chlorophenyl)-2-chloro-4-((3S,5R)-3,4,5-trimethylpiperazin-1-yl)benzamide] | 2 nM
Cc1ccc(-c2cnc(-c3cc(NC(=O)c4ccc(N5C[C@@H](C)N(C)[C@@H](C)C5)cc4C)ccc3Cl)[nH]2)o1 [Example 152, N-(3-(5-(5-methylfuran-2-yl)-1H-imidazol-2-yl)-4-chlorophenyl)-2-methyl-4-((3S,5R)-3,4,5-trimethylpiperazin-1-yl)benzamide] | 1.2 nM
Cc1cc(N2C[C@@H](C)N(C)[C@@H](C)C2)ccc1C(=O)Nc1ccc(Cl)c(-c2ncc(-c3cccn3C)[nH]2)c1 [Example 161, N-(3-(5-(1-methyl-1H-pyrrol-2-yl)-1H-imidazol-2-yl)-4-chlorophenyl)-2-methyl-4-((3S,5R)-3,4,5-trimethylpiperazin-1-yl)benzamide] | 0.38 nM
C[C@@H]1CN(c2ccc(C(=O)Nc3ccc(Cl)c(-c4ncc(-c5cccn5C)[nH]4)c3)c(Cl)c2)C[C@H](C)N1C [Example 162, N-(3-(5-(1-methyl-1H-pyrrol-2-yl)-1H-imidazol-2-yl)-4-chlorophenyl)-2-chloro-4-((3S,5R)-3,4,5-trimethylpiperazin-1-yl)benzamide] | 0.3 nM
CCN1[C@H](C)CN(c2ccc(C(=O)Nc3ccc(Cl)c(-c4ncc(-c5ccsc5)[nH]4)c3)c(Cl)c2)C[C@@H]1C [Example 165, N-(3-(5-(thiophen-3-yl)-1H-imidazol-2-yl)-4-chlorophenyl)-2-chloro-4-((3S,5R)-4-ethyl-3,5-dimethylpiperazin-1-yl)benzamide Dihydrochloride] | 0.19 nM
CCc1cnc(-c2cc(NC(=O)c3ccc(N4C[C@@H](C)N(C)[C@@H](C)C4)cc3C(F)(F)F)ccc2Cl)[nH]1 [Example 167, N-(3-(5-ethyl-1H-imidazol-2-yl)-4-chlorophenyl)-2-(trifluoromethyl)-4-((3S,5R)-3,4,5-trimethylpiperazin-1-yl)benzamide] | 28 nM

The next lines start with the values.

IC50 | SMILES
0.38 nM | CCc1cnc(-c2cc(NC(=O)c3ccc(N4C[C@@H](C)N(C)[C@@H](C)C4)c(F)c3C)ccc2Cl)[nH]1 [Example 168, N-(3-(5-ethyl-1H-imidazol-2-yl)-4-chlorophenyl)-2-methyl-3-fluoro-4-((3S,5R)-3,4,5-trimethylpiperazin-1-yl)benzamide]
0.67 nM | CCc1cnc(-c2cc(NC(=O)c3ccc(N4C[C@@H](C)N(CC)[C@@H](C)C4)cc3Cl)ccc2Cl)[nH]1 [Example 169, N-(3-(5-ethyl-1H-imidazol-2-yl)-4-chlorophenyl)-2-chloro-4-((3S,5R)-4-ethyl-3,5-dimethylpiperazin-1-yl)benzamide]
0.46 nM | CC(C)c1cnc(-c2cc(NC(=O)c3ccc(N4C[C@@H](C)N(C)[C@@H](C)C4)cc3C(F)(F)F)ccc2Cl)[nH]1 [Example 171, N-(3-(5-isopropyl-1H-imidazol-2-yl)-4-chlorophenyl)-2-(trifluoro-methyl)-4-((3S,5R)-3,4,5-trimethylpiperazin-1-yl)benzamide]
3.4 nM | Cc1cnc(-c2cc(NC(=O)c3ccc(N4C[C@@H](C)N(C)[C@@H](C)C4)cc3C)ccc2Cl)[nH]1 [Example 186, N-(3-(5-methyl-1H-imidazol-2-yl)-4-chlorophenyl)-2-methyl-4-((3S,5R)-3,4,5-trimethylpiperazin-1-yl)benzamide Dihydrochloride]
0.45 nM | CCc1cnc(-c2cc(NC(=O)c3ccc(N4C[C@@H](C)N(C)[C@@H](C)C4)cc3C)ccc2Cl)[nH]1 [Example 187, N-(3-(5-ethyl-1H-imidazol-2-yl)-4-chlorophenyl)-2-methyl-4-((3S,5R)-3,4,5-trimethylpiperazin-1-yl)benzamide Dihydrochloride]
1 nM | CCc1cnc(-c2cc(NC(=O)c3ccc(N4C[C@@H](C)N(C)[C@@H](C)C4)cc3Cl)ccc2Cl)[nH]1 [Example 188, N-(3-(5-ethyl-1H-imidazol-2-yl)-4-chlorophenyl)-2-chloro-4-((3S,5R)-3,4,5-trimethylpiperazin-1-yl)benzamide Dihydrochloride]
0.2 nM | Cc1c(C(=O)Nc2ccc(Cl)c(-c3ncc(C(C)C)[nH]3)c2)ccc(N2C[C@@H](C)N(C)[C@@H](C)C2)c1F [Example 190, N-(3-(5-isopropyl-1H-imidazol-2-yl)-4-chlorophenyl)-2-methyl-3-fluoro-4-((3S,5R)-3,4,5-trimethylpiperazin-1-yl)benzamide Dihydrochloride]
0.34 nM | CC(C)c1cnc(-c2cc(NC(=O)c3cc(F)c(N4C[C@@H](C)N(C)[C@@H](C)C4)cc3Cl)ccc2Cl)[nH]1 [Example 191, N-(3-(5-isopropyl-1H-imidazol-2-yl)-4-chlorophenyl)-2-chloro-5-fluoro-4-((3S,5R)-3,4,5-trimethylpiperazin-1-yl)benzamide Dihydrochloride]
0.52 nM | CCN1[C@H](C)CN(c2ccc(C(=O)Nc3ccc(Cl)c(-c4ncc(C(C)C)[nH]4)c3)c(Cl)c2)C[C@@H]1C [Example 192, N-(3-(5-isopropyl-1H-imidazol-2-yl)-4-chlorophenyl)-2-chloro-4-((3S,5R)-4-ethyl-3,5-dimethylpiperazin-1-yl)benzamide Dihydrochloride]
0.56 nM | C[C@@H]1CN(c2cc(Cl)c(C(=O)Nc3ccc(Cl)c(-c4ncc(C5CC5)[nH]4)c3)cc2F)C[C@H](C)N1C [Example 193, N-(3-(5-cyclopropyl-1H-imidazol-2-yl)-4-chlorophenyl)-2-chloro-5-fluoro-4-((3S,5R)-3,4,5-trimethylpiperazin-1-yl)benzamide Dihydrochloride]
0.63 nM | CCN1[C@H](C)CN(c2ccc(C(=O)Nc3ccc(Cl)c(-c4ncc(C5CC5)[nH]4)c3)c(Cl)c2)C[C@@H]1C [Example 194, N-(3-(5-cyclopropyl-1H-imidazol-2-yl)-4-chlorophenyl)-2-chloro-4-((3S,5R)-4-ethyl-3,5-dimethylpiperazin-1-yl)benzamide Dihydrochloride]
